Laboratory results as given in patent publication US10440955B2, “Methods comprising a biocidal polyamine” (Curza Global, LLC, priority 2013, dated 2019).
Several values for one entry are separate records, joined by “and”; a condition that tells them apart may be missing. Equal entries are not always repeated. Structures can show the parent of a compound that is named as a salt. Where two headings read alike, the source gives them in different places.

How the values were obtained:
biofilm of MRSA = assay: Combination treatment: dispersal of a biofilm; type: cell-based, Staphylococcus aureus; conditions: […] mixed with chlorhexidine gluconate at […]; biofilm of 10^11 cells; within one hour
A. baumannii biofilms [1] = assay: EBEC, high number biofilms on PEEK membranes, 10^9 to 10^2 CFU/PEEK membrane in 24 hours; type: cell-based, Acinetobacter baumannii; conditions: Table 3B c4, group head missing
MRSA biofilms [2] = assay: as above; type: cell-based; conditions: Staphylococcus aureus, read-out: MICs (μg/mL) II: MRSA
MRSA biofilms [3] = assay: MBEC, MBEC Inoculation Tray (Innovotech), to 10^2 CFU/peg in 24 hours; type: cell-based; conditions: Staphylococcus aureus, read-out: MICs (μg/mL): MRSA
A. baumannii biofilms [4] = assay: as above; type: cell-based, Acinetobacter baumannii; conditions: Table 3B c1, group head missing, probably MBEC
MRSA = assay: MIC, 96-well CAMHB, 10^5 to 10^2 CFU/mL in 24 hours; type: cell-based, Staphylococcus aureus; conditions: Staphylococcus aureus, MRSA
How it was run: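 Compound exposure was 24 h at 37 °C in CAMHB with an inoculum of ~5×10^5 CFU/mL from a 0.5 McFarland; eight replicates per concentration.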

A. baumannii biofilms [5] = assay: MBEC, MBEC Inoculation Tray (Innovotech), to 10^2 CFU/peg in 24 hours; type: cell-based, Acinetobacter baumannii
Description: To determine the MBEC of each polyamine compound, the MBEC Inoculation Tray by Innovotech, formerly known as the Calgary biofilm device, was used. Within this device, biofilms grow on the surface of polystyrene pegs, 96 of which are attached to a lid. These pegs are inserted into a flat bottom 96-well plate. In this instance, the MBEC of a molecule was defined as the concentration of compound (in μg/mL) required to reduce 10^5 or 10^6 CFU/peg (biofilm levels varied by isolate) to 10^2 CFU/peg in a 24-hour period.
Following the manufacturer's guidelines, biofilms were grown on the surface of each peg by first making a 0.5 McFarland of each isolate. The 0.5 McFarland was diluted 1:100 in CAMHB. Into each well of a flat bottom 96-well plate, 150 μL of broth were pipetted. The plate was shaken at 100 rpm for 24 hours (P. aeruginosa and A. baumannii) or 48 hours (MRSA). The pegs were then placed into a separate flat bottom 96-well plate for 10 seconds with 200 μL of phosphate buffered saline (PBS) in each well to remove nonadherent cells. The lid was then placed into a 96-well plate that contained varying concentrations of antimicrobial with 200 μL per well. The plate was incubated for 24 hours at 37° C. after which time 100 μL of broth were plated on TSA. TSA plates were incubated 24 hours at 37° C. and the number of CFU counted to calculate the CFU/peg. In this instance, the MBEC was defined as the concentration of antimicrobial required to reduce 10^5 or 10^6 CFU/peg to 10^2 CFU/peg in a 24 hour period.
To determine the MBEC, the MBEC Inoculation Tray by Innovotech, formerly known as the Calgary biofilm device, is used. Within this device, biofilms grow on the surface of polystyrene pegs, 96 of which are attached to a lid. These pegs are inserted into a flat bottom 96-well plate. In this instance, the MBEC of a molecule is defined as the concentration of compound required to reduce approximately 10^6 CFU/peg to approximately 10^2 CFU/peg in a 24-hour period.
Following the manufacturer's guidelines, biofilms are grown on the surface of each peg by first making a 0.5 McFarland of A. baumannii. The 0.5 McFarland is diluted 1:100 in CAMHB broth. Into each well of a flat bottom 96-well plate, 150 μL of broth is pipetted. The plate is shaken at 100 rpm for 24 hours. The pegs are placed into a separate flat bottom 96-well plate for 10 seconds with 200 μL of phosphate buffered saline (PBS) in each well to remove nonadherent cells. The lid is placed into a 96-well plate that contains varying concentrations of antimicrobial with 200 μL of broth per well. The plate is incubated for 24 hours at 37° C. after which time 100 μL of broth is plated on TSA. TSA plates is incubated 24 hours at 37° C. and the number of CFU counted to calculate the CFU/peg.
MBEC data were collected using the MBEC Inoculation Tray by Innovotech. The MBEC was defined in these preliminary results as the concentration of antimicrobial required to reduce 10^5 or 10^6 CFU/peg to 10^2 CFU/peg in a 24-hour period.

L-929 cells (ATCC CCL-1) = assay: Minimal Essential Media (MEM) Elution cytotoxicity test; type: cell-based
How it was run: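 L-929 cells (ATCC CCL-1) were seeded in multiwell plates and grown to roughly 80% confluence. Test article dilutions (1:2, 1:4, 1:8, 1:16) and control extracts were applied in triplicate and incubated 48±3 hours at 37±1° C. in 5±1% CO2. Wells were scored microscopically for morphological cytotoxicity on a 0–4 scale and averaged; Pass required grade not greater than 2 per USP <87>.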

[6] = Acinetobacter baumannii, read-out: MICs (μg/mL) II: A. baumannii

## NCCCNCCCNCc1ccccc1 [CZ-7, benzylnorspermidine]
Biofilm of MRSA
  dispersal of a biofilm of MRSA: significant dispersal
A. baumannii biofilms [1]; [6]
  MIC: > 5000 µg/mL
MRSA biofilms [2]; Table 3B c2, group head missing
  MIC: > 5000 µg/mL
MRSA biofilms [3]; Table 3A c4, group head missing, probably MBEC
  MIC: > 500 µg/mL
A. baumannii biofilms [4]; [6]
  MIC: > 500 µg/mL
MRSA; Table 3A c1, read-out: MICs (μg/mL): MRSA (first MRSA column)
  MIC: > 500 µg/mL
MRSA; Table 4, value in parentheses, read-out: MIC μg/mL (μM) MRSA
  MIC: > 2260 µM
MRSA; Table 4, read-out: MIC μg/mL (μM) MRSA
  MIC: > 500 µg/mL
MRSA; Table 5, read-out: MIC (MRSA)
  MIC: > 100 µM
A. baumannii biofilms [5]; Table 4
  MBEC μg/mL (μM) A. baumannii: >500 µg/mL
A. baumannii biofilms [5]; Table 4, value in parentheses
  MBEC μg/mL (μM) A. baumannii: (>2,259) μM

## NCCCNCCCNCc1cc(CNCCCNCCCN)cc(-c2ccccc2)c1 [CZ-58, N^1,N^1′-([1,1′-biphenyl]-3,5-diylbis(methylene))bis(N^3-(3-ammoniopropyl)propane-1,3-diaminium) chloride]
L-929 cells (ATCC CCL-1); Table 10A, 25 μg/mL
  Results Pass/Fail: Fail (a numerical grade greater than 2 is considered a cytotoxic effect, or a failing score (Fail))
L-929 cells (ATCC CCL-1); Table 10A, dilution 1:2 of 25 μg/mL
  Results Pass/Fail: Fail (a numerical grade greater than 2 is considered a cytotoxic effect, or a failing score (Fail))
L-929 cells (ATCC CCL-1); Table 10A, dilution 1:4 of 25 μg/mL
  Results Pass/Fail: Pass (receives a passing score (Pass) if the reactivity grade is not greater than grade 2 or a mild reactivity)
L-929 cells (ATCC CCL-1); Table 10A, dilution 1:8 of 25 μg/mL
  Results Pass/Fail: Pass (receives a passing score (Pass) if the reactivity grade is not greater than grade 2 or a mild reactivity)
L-929 cells (ATCC CCL-1); Table 10A, dilution 1:16 of 25 μg/mL
  Results Pass/Fail: Pass (receives a passing score (Pass) if the reactivity grade is not greater than grade 2 or a mild reactivity)
A. baumannii biofilms [5]; Table 4
  MBEC μg/mL (μM) A. baumannii: >50 µg/mL
A. baumannii biofilms [5]; Table 4, value in parentheses
  MBEC μg/mL (μM) A. baumannii: (>113) μM

## NCCCNCCCNCc1cccc(CNCCCNCCCN)c1 [CZ-25, N^1,N^1′-(1,3-phenylenebis(methylene))bis(N3-(3-ammoniopropyl)propane-1,3-diaminium) chloride]
A. baumannii biofilms [5]; Table 4
  MBEC μg/mL (μM) A. baumannii: 450 µg/mL

## CC(C)CNCCCNCCCNCc1cc(CNCCCNCCCNCC(C)C)cc(-c2ccccc2)c1 [CZ-86, N^1,N^1′-([1,1′-biphenyl]-3,5-diylbis(methylene))bis(N^3-(3-(isobutylamino)propyl)propane-1,3-diamine), hydrochloride salt]
MRSA; read-out: MIC (MRSA)
  MIC: < 50 µM
L-929 cells (ATCC CCL-1); Table 8A, 400 μg/mL
  Results Pass/Fail: Fail (a numerical grade greater than 2 is considered a cytotoxic effect, or a failing score (Fail))
L-929 cells (ATCC CCL-1); Table 8A, dilution 1:2 of 400 μg/mL
  Results Pass/Fail: Fail (a numerical grade greater than 2 is considered a cytotoxic effect, or a failing score (Fail))
L-929 cells (ATCC CCL-1); Table 8A, dilution 1:4 of 400 μg/mL
  Results Pass/Fail: Fail (a numerical grade greater than 2 is considered a cytotoxic effect, or a failing score (Fail))
L-929 cells (ATCC CCL-1); Table 8A, dilution 1:8 of 400 μg/mL
  Results Pass/Fail: Pass (receives a passing score (Pass) if the reactivity grade is not greater than grade 2 or a mild reactivity)
L-929 cells (ATCC CCL-1); Table 8A, dilution 1:16 of 400 μg/mL
  Results Pass/Fail: Pass (receives a passing score (Pass) if the reactivity grade is not greater than grade 2 or a mild reactivity)

## NCCCNCCCNCc1cc(CNCCCNCCCN)cc(CNCCCNCCCN)c1 [CZ-52, N^1,N^1′,N^1″-(benzene-1,3,5-triyltris(methylene))tris(N^3-(3-aminopropyl)propane-1,3-diamine), hydrochloride salt]
L-929 cells (ATCC CCL-1); Table 9A, 3.125 μg/mL
  Results Pass/Fail: Pass (receives a passing score (Pass) if the reactivity grade is not greater than grade 2 or a mild reactivity)
L-929 cells (ATCC CCL-1); Table 9A, 6.25 μg/mL
  Results Pass/Fail: Fail (a numerical grade greater than 2 is considered a cytotoxic effect, or a failing score (Fail))
L-929 cells (ATCC CCL-1); Table 9A, 12.5 μg/mL
  Results Pass/Fail: Fail (a numerical grade greater than 2 is considered a cytotoxic effect, or a failing score (Fail))
L-929 cells (ATCC CCL-1); Table 9A, 25 μg/mL
  Results Pass/Fail: Fail (a numerical grade greater than 2 is considered a cytotoxic effect, or a failing score (Fail))
L-929 cells (ATCC CCL-1); Table 9A, 1.563 (unit not given)
  Results Pass/Fail: Pass (receives a passing score (Pass) if the reactivity grade is not greater than grade 2 or a mild reactivity)
A. baumannii biofilms [5]; Table 4
  MBEC μg/mL (μM) A. baumannii: >500 µg/mL

## CN[C@H](CC(C)C)C(=O)N[C@H]1C(=O)N[C@@H](CC(N)=O)C(=O)N[C@H]2C(=O)N[C@H]3C(=O)N[C@H](C(=O)N[C@H](C(=O)O)c4cc(O)cc(O)c4-c4cc3ccc4O)[C@H](O)c3ccc(c(Cl)c3)Oc3cc2cc(c3O[C@@H]2O[C@H](CO)[C@@H](O)[C@H](O)[C@H]2O[C@H]2C[C@](C)(N)[C@H](O)[C@H](C)O2)Oc2ccc(cc2Cl)[C@H]1O [vancomycin, reference compound]
MRSA biofilms [2]
  MIC: > 25000 µg/mL
MRSA biofilms [3]
  MIC: > 500 µg/mL
MRSA; read-out: MIC μg/mL (μM) MRSA
  MIC: 10 µg/mL and 6.9 µM
MRSA; read-out: MICs (μg/mL): MRSA (first MRSA column)
  MIC: 10 µg/mL

## Polymyxin B sulfate [reference compound]
A. baumannii biofilms [1]
  MICs (μg/mL) II: A. baumannii: 1,000 μg/mL
A. baumannii biofilms [4]
  MICs (μg/mL) II: A. baumannii: 50 µg/mL
A. baumannii biofilms [5]; Table 4
  MBEC μg/mL (μM) A. baumannii: 50 µg/mL
A. baumannii biofilms [5]; Table 4, value in parentheses
  MBEC μg/mL (μM) A. baumannii: (36) μM
